Measurements published in PMC7417534, “Cytochrome P450 inhibition potential and initial genotoxic evaluation of 14-O-[(4,6-diaminopyrimidine-2-yl)thioacetyl] mutilin” (Scientific Reports, 2020).
Like-named read-outs stand apart in the source and are kept apart here.

Tests used:
[1] = biological target: T1, CYP2C9 (Homo sapiens, UniProt P11712); test: Cocktail CYP inhibition in human liver microsomes, CYP2C9 (tolbutamide); assay type: in vitro ADME; conditions: cocktail method, read-out: IC50 values, CYP2C9 in HLMs
T1 construct: containing 100 μL RLMs or HLMs; tissue Research Institute for Liver Diseases (Shanghai) Co., Ltd; host or cells: pooled human liver microsomes
T1 sequence (P11712 whole entry): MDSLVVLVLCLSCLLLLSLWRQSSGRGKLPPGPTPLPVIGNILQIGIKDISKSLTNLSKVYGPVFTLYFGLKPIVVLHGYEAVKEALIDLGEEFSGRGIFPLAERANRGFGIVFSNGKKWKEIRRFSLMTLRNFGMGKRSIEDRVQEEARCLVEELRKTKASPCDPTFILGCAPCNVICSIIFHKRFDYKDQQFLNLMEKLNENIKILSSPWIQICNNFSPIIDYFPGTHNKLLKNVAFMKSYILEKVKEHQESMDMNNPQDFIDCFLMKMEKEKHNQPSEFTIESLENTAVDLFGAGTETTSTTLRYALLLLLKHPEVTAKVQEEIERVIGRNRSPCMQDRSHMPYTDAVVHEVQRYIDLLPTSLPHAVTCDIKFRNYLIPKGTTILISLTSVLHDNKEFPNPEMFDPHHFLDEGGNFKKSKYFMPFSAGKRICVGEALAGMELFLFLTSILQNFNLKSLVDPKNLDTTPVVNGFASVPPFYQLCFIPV
Protocol: (§1) We used the cocktail method to study the inhibition activities of DPTM against CYP enzymes in RLMs and HLMs with slight modification. DPTM (250 μmol) was dissolved in 1.25 mL methanol to a solution and then diluted with methanol and water to 2, 10, 20, 100, 200, 400, 1,000 and 2000 μM, respectively. The obtained serial dilutions (10 μL) were added to the incubation mixtures (200 μL total volume), containing 100 μL RLMs or HLMs (final concentration was 5 μg/μL, respectively), 10 μL glucose-6-phosphate (final concentration was 1 mM), 10 μL glucose-6-phosphate dehydrogenase (final concentration was 0.1 U/L), 20 μL potassium phosphate buffer (final concentration was 0.01 M) and 20 μL MgCl2 (final concentration was 2 mM), to give the final concentrations were 0.1, 0.5, 1, 5 10, 20, 50, and 100 μM, respectively. For the groups that in the absence of DPTM, 10 μL methanol (1%) replaced the DPTM and was added to the incubation mixtures. […] The final concentration of methanol in all the incubation mixtures, including the blank group, was […]. […] The determined metabolic substrates were used for calculating the relative enzyme activity (Erel) by the following formula: Erel (%) = Ci(n)/Ci(0) × 100%, in which Ci(n) was the determined metabolic substrates in the presence of varying concentrations of DPTM and Ci(0) was the determined metabolic substrates in the absence of DPTM. […]

[2] = biological target: T2, CYP2D6 (Homo sapiens, UniProt P10635); test: Cocktail CYP inhibition in human liver microsomes, CYP2D6 (metoprolol); assay type: in vitro ADME; conditions: cocktail method, read-out: IC50 values, CYP2D6 in HLMs
T2 construct: containing 100 μL RLMs or HLMs; tissue Research Institute for Liver Diseases (Shanghai) Co., Ltd; host or cells: pooled human liver microsomes
T2 sequence (P10635 whole entry): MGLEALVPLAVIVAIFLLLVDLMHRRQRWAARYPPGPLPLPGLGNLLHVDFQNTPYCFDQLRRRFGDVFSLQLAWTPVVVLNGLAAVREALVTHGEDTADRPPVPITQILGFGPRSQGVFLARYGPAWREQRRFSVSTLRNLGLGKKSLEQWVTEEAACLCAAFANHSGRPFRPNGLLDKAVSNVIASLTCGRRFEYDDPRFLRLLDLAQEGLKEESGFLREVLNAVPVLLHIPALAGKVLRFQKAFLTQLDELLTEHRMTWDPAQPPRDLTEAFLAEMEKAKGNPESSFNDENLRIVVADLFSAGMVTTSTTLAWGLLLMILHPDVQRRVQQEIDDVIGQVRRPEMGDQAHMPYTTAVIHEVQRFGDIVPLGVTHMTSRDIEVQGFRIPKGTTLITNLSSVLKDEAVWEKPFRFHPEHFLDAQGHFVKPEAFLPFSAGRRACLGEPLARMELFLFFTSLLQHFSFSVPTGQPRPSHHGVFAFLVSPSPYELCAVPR
Protocol: as §1

[3] = system: CYP1A2 mRNA; test: CYP1A2 mRNA expression in Hep G2 cells (real-time PCR); assay type: cell-based, human
Protocol: The logarithmic growth phase Hep G2 cells were seeded into 12-well plastic plates at a density of […]. After incubation at 37 °C under 5% CO2 for 24 h, the media were then replaced with 1 mL of serial dilutions of the DPTM (4.98, 0.16 and 0.08 mM) in fresh media. When cells were incubated for 2, 4 and 12 h at 37 °C under 5% CO2, the RNA was isolated using the Trizol reagent according to the manufacturer’s protocol. Total RNA (5 μL) was transcribed into cDNA by using the PrimeScript RT reagent Kit (Perfect Real Time). The obtained cDNA (5 μL) was added for 45 cycles of PCR amplification to detect the mRNA expression (the primers and sequences used herein were given in Table 3) using the ABI Villa TM7Dx real-time PCR system (Gaithersburg, USA). Glyceraldehyde-3-phosphate dehydrogenase (GAPDH) was used as reference gene. All reactions were performed in a final volume of 20 μL (10 μL of 2 × SYBR Green Real-time PCR Master Mix, 2 μL of cDNA and 2 μL of the primers and 6 μL DEPC water) and executed in triplicate.

[4] = system: S. typhimurium TA102; conditions: − S9
From the text: S. typhimurium strains TA97, TA98, TA100, TA102 and TA1535 were stored and maintained as provided in the standard protocol. Each of the strains was checked for their genetic integrity prior to the experiment, and tested for biotin dependence, histidine dependence, biotin and histidine dependence, rfa marker (crystal violet) and presence of the plasmid pKM101 (ampicillin resistance) or pAQ1 (tetracycline resistance). Different strains were used to identify different types of mutations.
The test was carried out at five different concentrations of DPTM. […] Then 1 mL solution was diluted with distilled water by two fold.
The Ames test of DPTM was conducted as described in the literatures[42],[43] with some modifications. Briefly, 1 mL of strain was inoculated into 5 mL of nutrient broth, followed by incubating overnight at 37 °C. The mixture comprised respective strains, drug, negative and positive controls with the S9 for testing in the presence of metabolic activation system. For testing without S9, 1 × phosphate buffer saline (PBS, pH 7.4) replaced the S9 mix. The obtained mixtures were added into the tube, mixed well and incubated at 37 °C for 20 min. Then, the top agar was melted and 2 mL of this melted top agar was added to each tube and gently mixed. […] The results were expressed as the number of revertant colonies per plate. The experiments were performed in triplicate.

C=CC1(C)CC(OC(=O)CSc2nc(N)cc(N)n2)C2(C)C(C)CCC3(CCC(=O)C32)C(C)C1O (stereo not drawn) [DPTM, 14-O-[(4,6-Diaminopyrimidine-2-yl)thioacetyl] mutilin]
IC50 [1]: > 100 µM
IC50 [2]: > 100 µM
CYP1A2 mRNA expression versus control ([3]; 2 and 4 h, 4.98, 0.16 and 0.08 mM): significantly increase
CYP1A2 mRNA expression versus control ([3]; 12 h): significantly lowered
revertant colonies per plate, TA102 ([4]; dose 0.25 μmol/plate): 256 ± 20 CFU
revertant colonies per plate, TA102 ([4]; dose 0.50 μmol/plate): 241 ± 10 CFU
revertant colonies per plate, TA102 ([4]; dose 1.00 μmol/plate): 260 ± 17 CFU
revertant colonies per plate, TA102 ([4]; dose 1.99 μmol/plate): 264 ± 15 CFU
revertant colonies per plate, TA102 ([4]; dose 3.98 μmol/plate): 268 ± 12 CFU
